The target of test [1] is T1, SARS-CoV-2 PLpro (Severe acute respiratory syndrome coronavirus 2, UniProt P0DTD1). In words: biochemical.
Test [2] addresses T1, SARS-CoV-2 PLpro. In words: biochemical. This is another data set of the same source.

EC50 and IC50 data for three molecules are collected here from doi:10.1101/2022.03.30.486313v1 (biorxiv, 2022).

By EC50 is commonly meant the concentration giving half of the maximal effect. One may read the IC50 as the concentration that gives 50% inhibition. Higher therefore signals a need for much substance.

Regarding `O=S(=O)(O)CCSSCCS(=O)(=O)O` [Dimesna], the EC50 on SARS-CoV-2 PLpro [1] was 1050 µM. Regarding `CN(C)CCSSCCN(C)C` [DMGA, bis[2-(N,N-dimethylamino)ethyl] disulfide], 9.4 µM corresponded to half-maximal inhibition on SARS-CoV-2 PLpro [2] (IC50). This lies in the single-digit micromolar range. In turn, `Cc1ncc(CSSCc2cnc(C)c(O)c2CO)c(CO)c1O` [Pyritinol] registered an EC50 on SARS-CoV-2 PLpro [1] of 18 µM.
